Measurements published in patent US20220340875A1, “METHODS OF CULTURING AND/OR EXPANDING STEM CELLS AND/OR LINEAGE COMMITTED PROGENITOR CELLS USING AMIDO COMPOUNDS” (IDEAYA BIOSCIENCES, INC., priority 2018, published 2022).

target: T1, hAhR (Homo sapiens, UniProt P35869); test: AhR DRE-luciferase reporter transcriptional assay, antagonist mode (TCDD-induced); format: cell-based; conditions: HEPG2 DRE-Luc cells, 3 nM TCDD, 24 hour incubation, relative IC50
T1 construct: Stably integrated DRE-luciferase cell lines were generated by transducing the both cell lines with Cignal XRE luciferase reporter (Qiagen) lentiviral particles; endogenous in cells
T1 sequence (P35869 11-848): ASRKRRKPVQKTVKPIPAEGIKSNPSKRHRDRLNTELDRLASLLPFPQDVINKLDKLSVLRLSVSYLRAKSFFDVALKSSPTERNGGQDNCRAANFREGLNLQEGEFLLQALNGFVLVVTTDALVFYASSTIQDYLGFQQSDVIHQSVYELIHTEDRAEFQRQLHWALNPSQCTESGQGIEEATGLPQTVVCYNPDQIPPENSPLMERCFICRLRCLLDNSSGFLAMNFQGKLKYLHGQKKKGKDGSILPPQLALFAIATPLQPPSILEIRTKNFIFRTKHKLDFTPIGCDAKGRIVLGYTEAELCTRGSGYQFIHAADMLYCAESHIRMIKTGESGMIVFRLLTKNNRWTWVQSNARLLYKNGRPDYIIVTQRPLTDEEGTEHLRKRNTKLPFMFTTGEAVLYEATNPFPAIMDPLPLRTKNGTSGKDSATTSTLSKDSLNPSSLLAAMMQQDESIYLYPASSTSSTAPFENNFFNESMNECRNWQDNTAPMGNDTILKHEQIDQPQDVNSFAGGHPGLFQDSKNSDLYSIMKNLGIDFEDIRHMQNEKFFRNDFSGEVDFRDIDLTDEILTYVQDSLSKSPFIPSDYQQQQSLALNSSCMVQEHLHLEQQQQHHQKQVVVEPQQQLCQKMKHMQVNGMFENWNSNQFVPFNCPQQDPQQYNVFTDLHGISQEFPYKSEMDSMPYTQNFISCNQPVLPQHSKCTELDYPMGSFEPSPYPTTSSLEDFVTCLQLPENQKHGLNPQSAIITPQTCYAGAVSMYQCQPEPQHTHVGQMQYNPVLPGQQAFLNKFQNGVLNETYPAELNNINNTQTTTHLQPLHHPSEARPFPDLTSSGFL
Method: HEPG2 and HEPA1C1C7 cells were maintained in MEM and αMEM without nucleosides supplemented with 10% heat inactivated FBS respectively. Stably integrated DRE-luciferase cell lines were generated by transducing the both cell lines with Cignal XRE luciferase reporter (Qiagen) lentiviral particles according to the manufacturer protocol. For both cell lines stably integrated reporter cell lines were selected for the presence of 2 µg/mL puromycin. Following selection of stably integrated cell line pools, clonal cell lines were isolated by limiting dilution in 96-well plates. Transcriptional assays were performed by seeding 100 μL of cells at a density of 250,000 or 100,000 cells/mL, for HEPG2 and HEPA1C1C7 DRE-Luc cells respectively, into 96-well cell culture plates in OptiMEM supplemented with 0.5% heat inactivated FBS and allowed to attach overnight. For modulator assays, the compounds were added in a semi-log dose response using a D300e Digital Dispenser (Tecan) followed normalization with vehicle (DMSO). Immediately following compound addition 10 μL of 2,3,7,8-Tetrachlorodibenzo-p-dioxin (TCDD) was added to the cells to a final concentration of 3 nM or 0.3 nM for the HEPG2 and HEPA1C1C7 DRE-Luc cells respectively. Following 24 hour incubation the medium was removed and the cells were lysed in 25 μL of Reporter Lysis Buffer (Promega). Firefly luciferase activity was measured immediately following the addition of 50 μL Luciferase Assay Reagent (Promega). The percent maximal activity for each point was determined using the following equasion: (RLUsample-RLUvehicle−TCDD)/(RLUvehicle+TCDD RLUvehicle−TCDD)*100. The relative IC50, defined as the compound concentration required to reduce the TCDD induced response between the top and bottom plateau of each individual dose response curve by half, for each compound was determined using Prism 7 (GraphPad Software).

SMILES | IC50 [nM]
Cc1cc(-c2ncc3cc(C(F)(F)F)cc(C)c3n2)ccc1N(C)C(=O)c1ccnn1C [Example 111, N,1-dimethyl-N-(2-methyl-4-(8-methyl-6-(trifluoromethyl)quinazolin-2-yl)phenyl)-1H-pyrazole-5-carboxamide] | < 200
Cc1cc(-c2ccc3cccc(F)c3n2)ccc1NC(=O)c1ccnn1C [Example 018, N-(4-(8-fluoroquinolin-2-yl)-2-methylphenyl)-1-methyl-1H-pyrazole-5-carboxamide] | < 200
Cc1cc(-c2ccc3cc(F)ccc3n2)ccc1NC(=O)c1cn(C)cn1 [Example 035, N-(4-(6-fluoroquinolin-2-yl)-2-methylphenyl)-1-methyl-1H-imidazole-4-carboxamide] | 1000 to 10000
Cc1cc(-c2ccc3cc(F)ccc3n2)ccc1NC(=O)c1cncnc1 [Example 030, N-(4-(6-fluoroquinolin-2-yl)-2-methylphenyl)pyrimidine-5-carboxamide] | 1000 to 10000
Cc1cc(-c2ccc3ccccc3n2)ccc1NC(=O)c1ccnn1C [Example 070, 1-methyl-N-(2-methyl-4-(quinolin-2-yl)phenyl)-1H-pyrazole-5-carboxamide] | 500 to 1000
Cc1cc(-c2ccc3nncc(C)c3c2)ccc1NC(=O)c1ccnn1C [Example 062, 1-methyl-N-(2-methyl-4-(4-methylcinnolin-6-yl)phenyl)-1H-pyrazole-5-carboxamide] | 1000 to 10000
Cc1cc(-c2ccc3cccc(Cl)c3n2)ccc1NC(=O)c1ccnn1C [Example 012, N-(4-(8-chloroquinolin-2-yl)-2-methylphenyl)-1-methyl-1H-pyrazole-5-carboxamide] | < 200
COc1cccc2ccc(-c3ccc(NC(=O)c4ccnn4C)c(C)c3)nc12 [Example 056, N-(4-(8-methoxyquinolin-2-yl)-2-methylphenyl)-1-methyl-1H-pyrazole-5-carboxamide] | 500 to 1000
Cc1cc(-c2nc3ccc(F)cc3s2)ccc1NC(=O)c1ccnn1C [Example 098, N-(4-(6-fluorobenzo[d]thiazol-2-yl)-2-methylphenyl)-1-methyl-1H-pyrazole-5-carboxamide] | 1000 to 10000
Cc1cc(-c2ccc3nc(C(F)(F)F)ccc3n2)ccc1NC(=O)c1ccnn1C [Example 102, 1-methyl-N-(2-methyl-4-(6-(trifluoromethyl)-1,5-naphthyridin-2-yl)phenyl)-1H-pyrazole-5-carboxamide] | < 200
Cc1cc(-c2ccc3cc(F)ccc3n2)ccc1NC(=O)c1ncco1 [Example 039, N-(4-(6-fluoroquinolin-2-yl)-2-methylphenyl)oxazole-2-carboxamide] | 500 to 1000
Cc1nc(NC(=O)c2ccnn2C)ccc1-c1ccc2cc(F)ccc2n1 [Example 044, N-(5-(6-fluoroquinolin-2-yl)-6-methylpyridin-2-yl)-1-methyl-1H-pyrazole-5-carboxamide] | 1000 to 10000
Cc1cc(-c2ncc3cc(C(F)(F)F)ccc3n2)ccc1NC(=O)c1ccncc1 [Example 115, N-(2-methyl-4-(6-(trifluoromethyl)quinazolin-2-yl)phenyl)isonicotinamide] | < 200
Cc1cc(-c2ccc3cc(C4CC4)ccc3n2)ccc1N(C)C(=O)c1ccnn1C [Example 069, N-(4-(6-cyclopropylquinolin-2-yl)-2-methylphenyl)-N,1-dimethyl-1H-pyrazole-5-carboxamide] | 1000 to 10000
Cc1cc(-c2ccc3cc(F)cc(C(C)C)c3n2)ccc1NC(=O)c1ccnn1C [Example 055, N-(4-(6-fluoro-8-isopropylquinolin-2-yl)-2-methylphenyl)-1-methyl-1H-pyrazole-5-carboxamide] | 1000 to 10000
C#Cc1ccc2nc(-c3ccc(NC(=O)c4ccnn4C)c(C)c3)ccc2c1 [Example 072, N-(4-(6-ethynylquinolin-2-yl)-2-methylphenyl)-1-methyl-1H-pyrazole-5-carboxamide] | 200 to 500

Other lines, results leading:

IC50 [nM] | SMILES
< 200 | Cc1cc(C(=O)Nc2ccc(-c3ncc4cc(C(F)(F)F)ccc4n3)cc2C)c(C)cn1 [Example 125, 2,5-dimethyl-N-(2-methyl-4-(6-(trifluoromethyl)quinazolin-2-yl)phenyl)isonicotinamide]
< 200 | Cc1cc(-c2ncc3cc(C(F)(F)F)ccc3n2)ccc1N(C)C(=O)c1ccnn1CCN1CCOCC1 [Example 157, N-methyl-N-(2-methyl-4-(6-(trifluoromethyl)quinazolin-2-yl)phenyl)-1-(2-morpholinoethyl)-1H-pyrazole-5-carboxamide]
< 200 | Cc1cc(-c2ncc3cc(C(F)(F)F)ccc3n2)ccc1NC(=O)c1ccnc(C(N)=O)c1 [Example 151, N4-(2-methyl-4-(6-(trifluoromethyl)quinazolin-2-yl)phenyl)pyridine-2,4-dicarboxamide]
< 200 | Cc1cc(-c2ncc3nc(C(F)(F)F)cc(C)c3n2)ccc1N(C)C(=O)c1ccnn1CCO [Example 173, 1-(2-hydroxyethyl)-N-methyl-N-(2-methyl-4-(8-methyl-6-(trifluoromethyl)-pyrido[3,2-d]pyrimidin-2-yl)phenyl)-1H-pyrazole-5-carboxamide]
< 200 | Cc1cc(-c2ncc3cc(C(F)(F)F)ccc3n2)ccc1N(C)C(=O)c1c(C)cnn1C [Example 217, N,1,4-trimethyl-N-(2-methyl-4-(6-(trifluoromethyl)quinazolin-2-yl)phenyl)-1H-pyrazole-5-carboxamide]
200 to 500 | Cc1cc(-c2ncc3nc(C(F)(F)F)cc(C)c3n2)ccc1N(C)C(=O)c1ccnn1CC(N)=O [Example 171, 1-(2-amino-2-oxoethyl)-N-methyl-N-(2-methyl-4-(8-methyl-6-(trifluoromethyl)pyrido[3,2-d]pyrimidin-2-yl)phenyl)-1H-pyrazole-5-carboxamide]
< 200 | Cc1cc(C(F)(F)F)nc2cnc(-c3ccc(NC(=O)N4CCOCC4)c(F)c3)nc12 [Example 185, N-(2-fluoro-4-(8-methyl-6-(trifluoromethyl)pyrido[3,2-d]pyrimidin-2-yl)-phenyl)morpholine-4-carboxamide]
< 200 | Cc1c(NC(=O)c2ccnn2C)ccc(-c2ncc3nc(C(F)(F)F)cc(C)c3n2)c1F [Example 174, N-(3-fluoro-2-methyl-4-(8-methyl-6-(trifluoromethyl)pyrido[3,2-d]pyrimidin-2-yl)phenyl)-1-methyl-1H-pyrazole-5-carboxamide]
< 200 | CN(C(=O)c1ccnn1C)c1ccc(-c2ncc3nc(C(F)(F)F)ccc3n2)cc1F [Example 138, N-(2-fluoro-4-(6-(trifluoromethyl)pyrido[3,2-d]pyrimidin-2-yl)phenyl)-N,1-dimethyl-1H-pyrazole-5-carboxamide]
< 200 | COc1cnccc1C(=O)N(C)c1ccc(-c2ncc3cc(C(F)(F)F)ccc3n2)cc1C [Example 145, 3-Methoxy-N-methyl-N-(2-methyl-4-(6-(trifluoromethyl)quinazolin-2-yl)phenyl)isonicotinamide]
< 200 | Cc1cc(-c2ncc3nc(C(F)(F)F)cc(C)c3n2)ccc1N(C)C(=O)c1ccnc(C(N)=O)c1 [Example 168, N4-methyl-N4-(2-methyl-4-(8-methyl-6-(trifluoromethyl)pyrido[3,2-d]pyrimidin-2-yl)phenyl)pyridine-2,4-dicarboxamide]
< 200 | Cc1cc(C(=O)Nc2ccc(-c3ncc4cc(C(F)(F)F)ccc4n3)cc2C)ccn1 [Example 119, 2-methyl-N-(2-methyl-4-(6-(trifluoromethyl)quinazolin-2-yl)phenyl)isonicotinamide]
< 200 | Cc1cnccc1C(=O)N(C)c1ccc(-c2ncc3cc(C(F)(F)F)ccc3n2)cc1C [Example 122, N,3-dimethyl-N-(2-methyl-4-(6-(trifluoromethyl)quinazolin-2-yl)phenyl)isonicotinamide]
